Patent publication US20250152585A1, “PHARMACEUTICAL COMPOUND” (Duke Street Bio Limited, priority 2022, published 2025)
Like-named read-outs stand apart in the source and are kept apart here.

Legend:
[1] = biological target: T1, full length N-terminally FLAG-tagged PARP1 (Homo sapiens, UniProt P09874); assay: PARP1 probe displacement HTRF assay; conditions: for Selectivity: PARP1 over PARP2, ratio Kd (PARP2)/Kd (PARP1), probe displacement HTRF; for Kd: binned Kd, PARP1 probe displacement HTRF
[2] = biological target: T2, N-terminally FLAG-tagged PARP2 (amino acids 1-583) (Homo sapiens, UniProt Q9UGN5); assay: PARP2 probe displacement HTRF assay; assay type: binding; conditions: binned Kd, PARP2 probe displacement HTRF
T2 construct: N-terminally FLAG-tagged PARP2 (amino acids 1-583)
T2 sequence (Q9UGN5 whole entry, the tested form may be a part): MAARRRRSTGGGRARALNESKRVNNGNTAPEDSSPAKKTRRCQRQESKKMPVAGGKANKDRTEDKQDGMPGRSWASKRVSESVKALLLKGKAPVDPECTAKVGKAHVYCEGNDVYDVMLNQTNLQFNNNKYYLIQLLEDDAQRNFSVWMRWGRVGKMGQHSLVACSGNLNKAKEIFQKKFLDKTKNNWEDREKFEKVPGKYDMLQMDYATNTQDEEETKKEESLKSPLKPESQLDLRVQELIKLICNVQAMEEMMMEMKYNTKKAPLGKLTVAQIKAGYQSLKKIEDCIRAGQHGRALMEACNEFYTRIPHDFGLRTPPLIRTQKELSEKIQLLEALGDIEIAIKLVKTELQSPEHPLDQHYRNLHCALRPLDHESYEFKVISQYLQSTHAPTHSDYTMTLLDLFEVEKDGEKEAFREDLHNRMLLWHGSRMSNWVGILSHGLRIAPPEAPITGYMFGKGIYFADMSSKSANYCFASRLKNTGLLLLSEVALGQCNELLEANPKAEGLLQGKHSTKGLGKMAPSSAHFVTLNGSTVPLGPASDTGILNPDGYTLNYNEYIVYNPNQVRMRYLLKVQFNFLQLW
Method: Data analysis was performed identical as for PARP1.

[3] = biological target: T1, full length N-terminally FLAG-tagged PARP1; assay: PARP1 biochemical DELFIA assay (auto-PARylation); design: recombinant full length human N-terminally FLAG-tagged PARP1; conditions: binned IC50, PARP1 biochemical DELFIA assay

T1 sequence (P09874 whole entry, the tested form may be a part): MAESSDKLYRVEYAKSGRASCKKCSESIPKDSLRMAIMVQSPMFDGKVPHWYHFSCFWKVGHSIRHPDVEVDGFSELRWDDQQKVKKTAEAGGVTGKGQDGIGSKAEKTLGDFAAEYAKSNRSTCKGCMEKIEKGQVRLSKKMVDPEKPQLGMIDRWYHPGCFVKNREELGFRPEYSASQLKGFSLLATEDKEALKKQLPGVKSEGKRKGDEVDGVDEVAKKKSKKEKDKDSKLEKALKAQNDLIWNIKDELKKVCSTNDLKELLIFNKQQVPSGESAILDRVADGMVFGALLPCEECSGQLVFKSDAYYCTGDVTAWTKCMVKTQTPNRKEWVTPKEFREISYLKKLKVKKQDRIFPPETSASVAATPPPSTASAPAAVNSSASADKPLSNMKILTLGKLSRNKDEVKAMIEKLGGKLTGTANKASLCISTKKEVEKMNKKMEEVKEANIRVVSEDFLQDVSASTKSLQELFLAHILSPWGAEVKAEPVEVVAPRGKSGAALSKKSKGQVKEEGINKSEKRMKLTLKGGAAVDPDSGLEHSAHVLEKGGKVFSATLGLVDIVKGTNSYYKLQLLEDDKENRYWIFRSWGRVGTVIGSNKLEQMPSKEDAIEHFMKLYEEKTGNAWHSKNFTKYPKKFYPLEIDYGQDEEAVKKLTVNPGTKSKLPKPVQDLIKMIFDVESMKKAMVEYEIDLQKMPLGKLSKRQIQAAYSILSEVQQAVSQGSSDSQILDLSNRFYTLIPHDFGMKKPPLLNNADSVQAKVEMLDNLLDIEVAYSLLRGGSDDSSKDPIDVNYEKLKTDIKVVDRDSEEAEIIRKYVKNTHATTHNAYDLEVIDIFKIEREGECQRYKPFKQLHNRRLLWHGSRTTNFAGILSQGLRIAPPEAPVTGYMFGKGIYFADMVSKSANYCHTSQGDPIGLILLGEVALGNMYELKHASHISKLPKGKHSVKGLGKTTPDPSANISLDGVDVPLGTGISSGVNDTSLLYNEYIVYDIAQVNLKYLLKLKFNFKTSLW

Row | SMILES | Selectivity [1] | Kd ([1]; read-out: PARP1 HTRF) [nM] | Kd [2] [nM] | IC50 [3] [nM] | Kd ([1]; PARP1 HTRF) [nM]
1 | O=c1[nH]c(CC2CCCN(C3CCC(F)(F)CC3)C2)nc2ccccc12 (single isomer, unassigned) [Compound 11a] | − (− indicates a value of less than 10) | 100 to 1000 | > 10000 | 1000 to 10000 | –
2 | O=c1[nH]c(CC2CCCN(C3CCC(F)(F)CC3)C2)nc2ccccc12 (single isomer, unassigned) [Compound 11b] | − (− indicates a value of less than 10) | 100 to 1000 | 1000 to 10000 | 100 to 1000 | –
3 | CNC(=O)c1ccc(OCCN2CCCC(Cc3nc4ccccc4c(=O)[nH]3)C2)cn1 (single isomer, unassigned) [Compound 14b, N-methyl-5-(2-(3-((4-oxo-3,4-dihydroquinazolin-2-yl)methyl)piperidin-1-yl)ethoxy)picolinamide] | +++ (+++ indicate a value of at least 100) | – | > 10000 | 10 to 100 | 10 to 100
4 | CNC(=O)c1ccc(N2CC(N3CCCC(c4nc5ccccc5c(=O)[nH]4)C3)C2)cn1 (single isomer, unassigned) [Compound 23b] | − (− indicates a value of less than 10) | 1000 to 10000 | > 10000 | 1000 to 10000 | –
5 | CCc1cnc(C2CCCN(C3CCN(c4ccc(C(=O)NC)nc4)CC3)C2)[nH]c1=O (single isomer, unassigned) [Compound 31b] | +++ (+++ indicate a value of at least 100) | 10 to 100 | > 10000 | 10 to 100 | –
6 | O=c1[nH]c(C2CCN(C3CCN(c4ccccc4)CC3)C2)nc2ccccc12 (single isomer, unassigned) [Compound 32a] | + (+ indicates a value of 10 to less than 50) | 10 to 100 | 1000 to 10000 | 10 to 100 | –
7 | CNC(=O)c1ccc(N2CCC(N3CCCC(c4ncc(C)c(=O)[nH]4)C3)CC2)cn1 (single isomer, unassigned) [Compound 33b] | ++ (++ indicates a value of 50 to less than 100) | 10 to 100 | > 10000 | 10 to 100 | –
8 | N#Cc1ccc(N2CCC(N3CCC(c4nc5ccccc5c(=O)[nH]4)C3)CC2)cc1 (single isomer, unassigned) [Compound 34a] | − (− indicates a value of less than 10) | 10 to 100 | 100 to 1000 | 10 to 100 | –
9 | N#Cc1ccc(N2CCC(N3CCC(c4nc5ccccc5c(=O)[nH]4)C3)CC2)cc1 (single isomer, unassigned) [Compound 34b] | +++ (+++ indicate a value of at least 100) | < 10 | 1000 to 10000 | < 10 | –
10 | CNC(=O)c1ccc(N2CCC(N3CCC(c4ncc(C)c(=O)[nH]4)C3)CC2)cn1 (single isomer, unassigned) [Compound 35b] | +++ (+++ indicate a value of at least 100) | 10 to 100 | > 10000 | 10 to 100 | –
11 | CCc1cnc(C2CCN(C3CCC(F)(F)CC3)C2)[nH]c1=O (single isomer, unassigned) [Compound 38a] | − (− indicates a value of less than 10) | 1000 to 10000 | 1000 to 10000 | 1000 to 10000 | –
12 | CCc1cnc(C2CCN(C3CCC(F)(F)CC3)C2)[nH]c1=O (single isomer, unassigned) [Compound 38b] | − (− indicates a value of less than 10) | 1000 to 10000 | > 10000 | 1000 to 10000 | –
13 | O=c1[nH]c(C2CCN(C3CCN(c4ccc(Cl)cc4)CC3)C2)nc2ccccc12 (single isomer, unassigned) [Compound 43a] | − (− indicates a value of less than 10) | 10 to 100 | 100 to 1000 | 100 to 1000 | –
14 | O=c1[nH]c(C2CCN(C3CCN(c4ccc(Cl)cc4)CC3)C2)nc2ccccc12 (single isomer, unassigned) [Compound 43b] | + (+ indicates a value of 10 to less than 50) | < 10 | 100 to 1000 | < 10 | –
